Consider 2 compounds from US20240360107A1, “AN EIF4A INHIBITOR WITH A NOVEL MECHANISM OF ACTION” (ARIZONA BOARD OF REGENTS ON BEHALF OF THE UNIVERSITY OF …, priority 2021, published 2024).

The target of assay [1] is T1, eIF4A (Homo sapiens, UniProt P60842). Nature of the assay: RNA-stimulated malachite green ATPase assay. To be noted: for IC50: 750 nM eIF4A, 250 μM ATP, 0.25 mg/mL Yeast RNA, 4 h at 37° C. It is filed as biochemical. Also noted: 6xHis with TEV protease site (N, cleaved yes); made in house; host or cells: E. coli BL21-CodonPlus. The method, then: Human eIF4A protein was produced recombinantly and a greater than 100,000-compound screen for inhibitors was completed using a malachite green ATPase assay (FIG. 11A). […] A stable mixture of yeast RNAs was added in an effort to improve this system and create a more biologically relevant eIF4A assay. eIF4A ATPase activity was accelerated without a statistically significant increase in the background signal in the presence of this RNA (FIG. 11B), and the new conditions gave excellent statistical parameters in a 384-well plate format (FIG. 11C).
T1 sequence (P60842 whole entry): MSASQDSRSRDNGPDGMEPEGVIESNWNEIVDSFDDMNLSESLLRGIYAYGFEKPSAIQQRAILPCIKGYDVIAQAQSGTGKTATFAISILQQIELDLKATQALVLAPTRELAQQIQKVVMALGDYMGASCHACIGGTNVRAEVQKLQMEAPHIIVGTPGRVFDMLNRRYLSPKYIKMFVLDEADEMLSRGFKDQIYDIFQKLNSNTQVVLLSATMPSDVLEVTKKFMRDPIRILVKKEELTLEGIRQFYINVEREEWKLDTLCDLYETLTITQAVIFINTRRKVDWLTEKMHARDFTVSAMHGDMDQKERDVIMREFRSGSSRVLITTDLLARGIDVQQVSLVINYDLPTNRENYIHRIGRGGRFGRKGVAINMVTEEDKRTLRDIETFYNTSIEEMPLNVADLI
(§1) ATPase assay. Recombinant WT or mutant eIF4A was added to a clear bottom 384 well plate (Greiner) in ATPase buffer (20 mM Tris pH 7.4, 80 mM KCl, 2.5 mM MgCl2, 1 mM DTT, 1% glycerol). Compounds were added and the plate was incubated at 37° C. for 20 min. ATP/RNA solution was added to afford a 20 μL per well reaction volume with 750 nM eIF4A, 250 μM ATP, and 0.25 mg/mL Yeast RNA (Sigma) for the initial screen and dose responses, and varying concentrations of ATP and RNA for the kinetic assays. The plate was incubated for 4 h at 37° C. for the initial screen and dose responses, and at seven time points (1 hour-7 hours) for kinetic assays. 0.04% v/v (final concentration) Tween-20 was added to a Malachite Green solution, and the Malachite Green (40 μL per well) was added. The solution was incubated for 5 minutes at room temperature and Absorbance at 660 nm was read on a SpectraMax iD5 plate reader (Molecular Devices).

Assay [2] deals with T1, eIF4A. Put plainly: FAM-RNA fluorescence polarization assay. To be noted: FAM-A(CAA)5 RNA; for IC50: 2 μM eIF4A, read-out: IC50, FAM-RNA FP assay. The arrangement: 6xHis with TEV protease site (N, cleaved yes); made in house; host or cells: E. coli BL21-CodonPlus. In kind it is binding. The method, then:
Next, an FP assay was performed with a fluorescent, eIF4A-binding RNA oligo (FAM-A(CAA)5) as the fluorophore. […] This same assay was used to investigate if changing the identity of the RNA fluorophore affected the ability of compound 28 to compete the RNA off eIF4A. […] This is evidence that compound 28 inhibits the RNA-eIF4A interaction by binding eIF4A and not the RNA.
FAM-RNA fluorescence polarization assay. Oligos were purchased from Integrated DNA Technologies using RNase free preparations. Recombinant eIF4A (2 μM) was incubated with 25 nM FAM-labelled RNA for 30 min in FP Buffer (15 mM HEPES-NaOH (pH 8), 100 mM NaCl, 1 mM MgCl2, 15% glycerol, 2 mM DTT, 2 mM AMPPNP) at 22° C. in low-volume black 384 well plates (Greiner). eIF4A was incubated with compound for 20 min prior to the addition of FAM-RNA. Plate was incubated for another 30 min before fluorescence polarization was read at 485:535 nm (Ex:Em) on a SpectraMax iD5 plate reader (Molecular Devices. IC50 values were calculated using GraphPad Prism v6.0.

Assay [3] has as its system HCV IRES-dependent translation of Renilla luciferase. Put plainly: in vitro translation of bicistronic luciferase reporter in rabbit reticulocyte lysate, Renilla luciferase. In kind it is biochemical. The conditions noted are these: Cycloheximide 600 μM, Silvestrol 100 nM. The source says:
A bicistronic luciferase reporter ([…]) (FIG. 7B, top) was programmed into rabbit reticulocyte lysates, cellular extracts capable of performing both cap-dependent and Hepatitis C virus (HCV) internal ribosomal entry site (IRES)-mediated translation. eIF4A is the enzymatic driver of cap-dependent translation and is not involved in translation through HCV IRES. Compounds that inhibit eIF4A should inhibit cap-dependent translation of firefly (FF) luciferase while leaving IRES-mediated translation of Renilla (Ren) luciferase relatively unaffected. The inhibitory activities of cycloheximide, silvestrol, and 28 were assessed in this in vitro translation assay (FIG. 7B, bottom). […] The ability of compound 28 to preferentially target cap-dependent translation in a similar manner as silvestrol provides promising evidence that 28 inhibits eIF4A and not other proteins in the general translational machinery.
The dual-luciferase reporter plasmid pSP/(CAG)33/FF/HCV/Ren-pA51 was linearized with BamHI and subsequently in vitro transcribed using the Promega mMessage mMachine SP6 transcription kit, according to manufacturer's specifications. RNA was precipitated with LiCI and resuspended in H2O for use in in vitro translation experiments. Rabbit reticulocyte lysate (RRL) (nuclease-treated, Promega) was used to assess inhibitory effects of 28 on translation of the dual-reporter. Briefly, a reaction consisting of 50% RRL, 30 ng/μL reporter RNA, 10 μM Amino Acid Mixture Minus Methionine, 10 μM Amino Acid Mixture Minus Leucine, […], 1 U/μL RNAseOut (Thermo), and drug (final DMSO concentration 1%) were incubated at 30° C. for 90 minutes. The reaction was quenched with 50 μL 1× Passive Lysis Buffer (Promega), 10 μL of the mix was transferred to a 96-well white plate (Cellstar), and the Dual-Reporter Luciferase Assay System (Promega) was used to generate luminescence according to the manufacturer's instructions. Luminescence was detected using a plate reader (BioTek HT Synergy).

The target of another assay is T2, eIF4A R110L mutant (Homo sapiens, UniProt P60842, R110L).
T2 construct: 6xHis with TEV protease site (N, cleaved yes); made in house; host or cells: E. coli BL21-CodonPlus
T2 sequence (P60842 whole entry R110L): as the sequence (P60842 whole entry) above, with R110L counted along it
Nature of the assay: malachite green ATPase assay, eIF4A mutant. In kind it is biochemical. The method, then:
(§2) Furthermore, T158 is predicted to form a hydrogen bond to the […] of the 6-nitro quinoline substitution of compound 28. The ability of the 6-nitro group to form two strong interactions with the binding pocket of eIF4A is the most likely explanation for why this substitution afforded 28 such a large gain in potency for compound 28 compared to other analogs in the inhibitor series. Mutagenesis and recombinant production of mutant eIF4A protein was performed to confirm the docking pose and predicted interactions between compound 28 and its eIF4A binding pocket (FIG. 6D).
as §1

Another assay addresses T3, eIF4A R110M mutant (Homo sapiens, UniProt P60842, R110M).
T3 construct: 6xHis with TEV protease site (N, cleaved yes); made in house; host or cells: E. coli BL21-CodonPlus
Nature of the assay: malachite green ATPase assay, eIF4A mutant. It is filed as biochemical. The method, then:
as §2, §1

The next assay deals with T4, eIF4A R110E mutant (Homo sapiens, UniProt P60842, R110E).
T4 construct: 6xHis with TEV protease site (N, cleaved yes); made in house; host or cells: E. coli BL21-CodonPlus
T4 sequence (P60842 whole entry R110E): as the sequence (P60842 whole entry) above, with R110E counted along it
Nature of the assay: malachite green ATPase assay, eIF4A mutant. It is filed as biochemical. The method, then: as §2, §1

Another assay concerns the target T5, eIF4A R110K mutant (Homo sapiens, UniProt P60842, R110K).
T5 construct: 6xHis with TEV protease site (N, cleaved yes); made in house; host or cells: E. coli BL21-CodonPlus
Nature of the assay: malachite green ATPase assay, eIF4A mutant. In kind it is biochemical. The method, then: as §2, §1

The target of the next assay is T6, eIF4A T158A mutant (Homo sapiens, UniProt P60842, T158A).
T6 construct: 6xHis with TEV protease site (N, cleaved yes); made in house; host or cells: E. coli BL21-CodonPlus
T6 sequence (P60842 whole entry T158A): as the sequence (P60842 whole entry) above, with T158A counted along it
Put plainly: malachite green ATPase assay, eIF4A mutant. In kind it is biochemical. The method, then: as §2, §1

“Also recorded” adds a separate entry of the source.

T3 sequence (P60842 whole entry R110M): as the sequence (P60842 whole entry) above, with R110M counted along it
T5 sequence (P60842 whole entry R110K): as the sequence (P60842 whole entry) above, with R110K counted along it

Consider `CCCCc1ccc(-c2ccc(-c3cc(C(=O)O)c4cc(Br)ccc4n3)o2)cc1` [Compound 1, 6-bromo-2-(5-(4-butylphenyl)furan-2-yl)quinoline-4-carboxylic acid], for which, at eIF4A [1], the half-inhibitory concentration (IC50) is 26.6 ± 2.46 µM. Moreover, at eIF4A [2], the “competition of fluorescent RNA off eIF4A” value is on record as “able to compete the fluorescent RNA off of eIF4A” and the IC50 came to 161 ± 9.8 µM.

`CCCCc1ccc(-c2ccc(-c3cc(C(=O)O)c4cc([N+](=O)[O-])ccc4n3)o2)cc1` [Compound 28, 2-(5-(4-butylphenyl)furan-2-yl)-6-nitroquinoline-4-carboxylic acid]: the “effect on HCV IRES-mediated translation (Renilla luciferase)” value in assay [3] is on record as “only show a modest effect on HCV IRES-dependent translation of Renilla luciferase”. Besides, the figures for the IC50 against eIF4A [1] and on eIF4A [2] were 8.6 ± 0.944 µM and 58.3 ± 2.5 µM, respectively. Besides, on eIF4A [1] (comparison within the series), the “potency in the eIF4A ATPase assay (in words)” value was “most potent inhibitor of eIF4A ATPase activity; also recorded: over two-fold more potent than any other molecule previously produced in the series”. Besides, the “potency against eIF4A mutant in ATPase assay” value on eIF4A R110L mutant was “lost all potency”; at eIF4A R110M mutant it was “lost all potency”; at eIF4A R110E mutant, “lost all potency”; at eIF4A R110K mutant it was “remained moderately potent”; on eIF4A T158A mutant, “lost all potency”. Also, the “competition of fluorescent RNA off eIF4A” value on eIF4A [2] was “able to compete the fluorescent RNA off of eIF4A; also recorded: about three-fold more potent than 1”.
